Measured values as given in patent US20110263564A1, “PYRIDINE, BICYCLIC PYRIDINE AND RELATED ANALOGS AS SIRTUIN MODULATORS” (Sirtris Pharmaceuticals, Inc., priority 2008, published 2011).

Target: T1, SIRT1 (Homo sapiens, UniProt Q96EB6)
T1 sequence (Q96EB6 1-747): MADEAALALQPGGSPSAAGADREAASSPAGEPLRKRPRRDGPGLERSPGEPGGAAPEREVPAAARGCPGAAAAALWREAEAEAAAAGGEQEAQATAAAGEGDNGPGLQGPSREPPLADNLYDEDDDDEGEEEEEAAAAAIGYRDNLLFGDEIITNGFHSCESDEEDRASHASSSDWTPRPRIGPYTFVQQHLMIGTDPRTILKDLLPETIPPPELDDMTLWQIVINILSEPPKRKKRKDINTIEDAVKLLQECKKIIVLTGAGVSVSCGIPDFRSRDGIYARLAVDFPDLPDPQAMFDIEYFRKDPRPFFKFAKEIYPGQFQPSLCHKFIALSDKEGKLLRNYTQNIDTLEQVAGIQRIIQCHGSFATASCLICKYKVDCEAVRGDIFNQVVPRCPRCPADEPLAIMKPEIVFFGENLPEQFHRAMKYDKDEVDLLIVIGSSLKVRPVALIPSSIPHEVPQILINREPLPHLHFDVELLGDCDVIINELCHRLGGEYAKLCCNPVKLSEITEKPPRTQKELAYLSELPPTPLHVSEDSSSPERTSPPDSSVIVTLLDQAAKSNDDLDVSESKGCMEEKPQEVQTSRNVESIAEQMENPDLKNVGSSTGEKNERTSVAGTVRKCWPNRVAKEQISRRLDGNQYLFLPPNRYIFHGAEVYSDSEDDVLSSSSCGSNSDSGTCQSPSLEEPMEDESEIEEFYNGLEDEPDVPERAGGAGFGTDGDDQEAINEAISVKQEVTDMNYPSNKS
Experiment: Mass spectrometry based assay of SIRT1 activity (deacetylation of a p53-based acetylated peptide)
Type: biochemical
Conditions: 10 nM SIRT1, 0.5 μM peptide substrate, 120 μM βNAD+, 25 minutes at 25° C.; for Emax: read-out: % FOLD ACT. (percent maximum fold activation)
Source text: A mass spectrometry based assay was used to identify modulators of SIRT1 activity. The mass spectrometry based assay utilizes a peptide having 20 amino acid residues as follows: Ac-EE-K(biotin)-GQSTSSHSK(Ac)NleSTEG-K(5TMR)-EE-NH2 (SEQ ID NO: 1) wherein K(Ac) is an acetylated lysine residue and Nle is a norleucine. The peptide is labeled with the fluorophore 5TMR (excitation 540 nm/emission 580 nm) at the C-terminus. The sequence of the peptide substrate is based on p53 with several modifications. In addition, the methionine residue naturally present in the sequence was replaced with the norleucine because the methionine may be susceptible to oxidation during synthesis and purification.
The mass spectrometry assay is conducted as follows: 0.5 μM peptide substrate and 120 μM βNAD^+ is incubated with 10 nM SIRT1 for 25 minutes at 25° C. in a reaction buffer (50 mM Tris-acetate pH 8, 137 mM NaCl, 2.7 mM KCl, 1 mM MgCl2, 5 mM DTT, 0.05% BSA). Test compounds may be added to the reaction as described above. […] After the 25 minute incubation with SIRT1, 10 μL of 10% formic acid is added to stop the reaction. Reactions are sealed and frozen for later mass spec analysis. Determination of the mass of the substrate peptide allows for precise determination of the degree of acetylation (i.e. starting material) as compared to deacetylated peptide (product).
A control for inhibition of sirtuin activity is conducted by adding 1 μL of 500 mM nicotinamide as a negative control at the start of the reaction (e.g., permits determination of maximum sirtuin inhibition). A control for activation of sirtuin activity is conducted using 10 nM of sirtuin protein, with 1 μL of DMSO in place of compound, to determine the amount of deacetylation of the substrate at a given timepoint within the linear range of the assay. This timepoint is the same as that used for test compounds and, within the linear range, the endpoint represents a change in velocity.
For the above assay, SIRT1 protein was expressed and purified as follows. […] The protein was expressed by induction with 1 mM IPTG as an N-terminal His-tag fusion protein at 18° C. overnight and harvested at 30,000×g. Cells were lysed with lysozyme in lysis buffer (50 mM Tris-HCl, 2 mM Tris[2-carboxyethyl]phosphine (TCEP), 10 μM ZnCl2, 200 mM NaCl) and further treated with sonication for 10 min for complete lysis. The protein was purified over a Ni-NTA column (Amersham) and fractions containing pure protein were pooled, concentrated and run over a sizing column (Sephadex S200 26/60 global). The peak containing soluble protein was collected and run on an Ion-exchange column (MonoQ). Gradient elution (200 mM-500 mM NaCl) yielded pure protein. This protein was concentrated and dialyzed against dialysis buffer (20 mM Tris-HCl, 2 mM TCEP) overnight. The protein was aliquoted and frozen at −80° C. until further use.
Sirtuin modulating compounds that activated SIRT1 were identified using the assay described above and are shown below in Table 1 for compounds of Formula (III)). The EC1.5 values represent the concentration of test compounds that result in 150% activation of SIRT1. The EC1.5 values for the activating compounds in Table 1 are represented by A (EC1.5<10.0 μM), B (EC1.5 10-25 μM), C (EC1.5>25 μM). The percent maximum fold activation is represented by A (Fold activation>200%) or B (Fold Activation<200%); “NT” means not tested; “ND” mean not determinable.

SMILES | EC1.5 (concentration of test compound that results in 150% activation of SIRT1) | Emax
O=C(Nc1ccnc(N2CCCC2)c1)C1CCCc2ccc(-c3cccc(C(F)(F)F)c3F)nc21 (stereo not shown) [Compound 273] | C (EC1.5>25 μM) | 
O=C(Nc1ccnc(N2CCCC2)c1)C1CCCc2ccc(-c3cccc(N4CCOCC4)c3)nc21 (stereo not shown) [Compound 278] | A (EC1.5<10.0 μM) | < 200%
O=C(Nc1ccccn1)C1CCCc2ccc(-c3cccc(C(F)(F)F)c3)nc21 (stereo not shown) [Compound 284] | C (EC1.5>25 μM) | 
O=C(Nc1cccnc1)C1CCCc2ccc(-c3cccc(C(F)(F)F)c3)nc21 (stereo not shown) [Compound 285] | C (EC1.5>25 μM) | 
O=C(Nc1ccncc1)C1CCCc2ccc(-c3cccc(C(F)(F)F)c3)nc21 (stereo not shown) [Compound 286] | C (EC1.5>25 μM) | 
O=C(NC1CCOCC1)C1CCCc2ccc(-c3cccc(C(F)(F)F)c3)nc21 (stereo not shown) [Compound 287] | C (EC1.5>25 μM) | 
O=C(Nc1nc(CN2CCOCC2)cs1)C1CCCc2ccc(-c3cccc(C(F)(F)F)c3)nc21 (stereo not shown) [Compound 294] | A (EC1.5<10.0 μM) | > 200%
O=C(Nc1ncc(CN2CCCC2)s1)C1CCCc2ccc(-c3cccc(C(F)(F)F)c3)nc21 (stereo not shown) [Compound 296] | C (EC1.5>25 μM) | 
O=C(Nc1cccc(CN2CCOCC2)n1)C1CCCc2ccc(-c3cccc(C(F)(F)F)c3)nc21 (stereo not shown) [Compound 297] | C (EC1.5>25 μM) | 
O=C(Nc1cccc(N2CCOCC2)n1)C1CCOc2ccc(-c3cccc(C(F)(F)F)c3)nc21 (stereo not shown) [Compound 302, N-(6-morpholinopyridin-2-yl)-6-(3-(trifluoromethyl)phenyl)-3,4-dihydro-2H-pyrano[3,2-b]pyridine-4-carboxamide] | C (EC1.5>25 μM) | 
O=C(Nc1ccncn1)C1CCOc2ccc(-c3cccc(C(F)(F)F)c3)nc21 (stereo not shown) [Compound 303] | C (EC1.5>25 μM) | 

Further lines, results first:

EC1.5 (concentration of test compound that results in 150% activation of SIRT1) | Emax | SMILES
C (EC1.5>25 μM) |  | O=C(Nc1nccs1)C1CCCc2ccc(-c3cccc(C(F)(F)F)c3)nc21 (stereo not shown) [Compound 279]
C (EC1.5>25 μM) |  | Cc1nc(NC(=O)C2CCCc3ccc(-c4cccc(C(F)(F)F)c4)nc32)sc1C (stereo not shown) [Compound 281]
B (EC1.5 10-25 μM) | < 200% | Cc1cc(NC(=O)C2CCCc3ccc(-c4cccc(C(F)(F)F)c4)nc32)sn1 (stereo not shown) [Compound 282]
C (EC1.5>25 μM) |  | Cc1cc(NC(=O)C2CCCc3ccc(-c4cccc(C(F)(F)F)c4)nc32)no1 (stereo not shown) [Compound 288]
B (EC1.5 10-25 μM) | < 200% | O=C(Nc1cnccn1)C1CCCc2ccc(-c3cccc(C(F)(F)F)c3)nc21 (stereo not shown) [Compound 289]
C (EC1.5>25 μM) |  | Cc1ccnc(NC(=O)C2CCCc3ccc(-c4cccc(C(F)(F)F)c4)nc32)n1 (stereo not shown) [Compound 292]
C (EC1.5>25 μM) |  | O=C(Nc1nc2ccccc2s1)C1CCCc2ccc(-c3cccc(C(F)(F)F)c3)nc21 (stereo not shown) [Compound 295]
